From article PMC5148754, “Response surface methodology-based optimization of production media and purification of α-galactosidase in solid-state fermentation by Fusarium moniliforme NCIM 1099” (3 Biotech, 2016) come the findings set out here.

Broadly, the Km is the substrate concentration at which the rate is half of its maximum.

The test system of test [1] is T1, α-galactosidase.
T1 construct: gene EC 3.2.1.22; single band 57 kDa on SDS-PAGE; optimum pH 4.0
Description: initial rate of hydrolysis, p-nitrophenol release at […] nm, Lineweaver-Burk. The format is biochemical, Fusarium verticillioides. Conditions: citrate phosphate buffer pH 5.0, 50 °C (standard assay); read-out: apparent Km.

Test [2] has as its system T1, α-galactosidase. Description: initial rate of hydrolysis, Lineweaver-Burk. The format is biochemical, Fusarium verticillioides. As to conditions: citrate phosphate buffer pH 5.0, 50 °C (standard assay); read-out: apparent Km.

Molecules are shown by their SMILES.

For `O=[N+]([O-])c1ccc(O[C@H]2O[C@H](CO)[C@H](O)[C@H](O)[C@H]2O)cc1` [p-nitrophenyl-α-D-galactopyranoside], the Km with α-galactosidase [1] worked out at 200 µM.
`OC[C@H]1O[C@H](OC[C@H]2O[C@H](O[C@]3(CO)O[C@H](CO)[C@@H](O)[C@@H]3O)[C@H](O)[C@@H](O)[C@@H]2O)[C@H](O)[C@@H](O)[C@H]1O` [raffinose]: in the test with α-galactosidase [2], the Km is 3660 µM.
Same read-out and setting: the value for `OC[C@H]1O[C@H](OC[C@H]2OC(O)[C@H](O)[C@@H](O)[C@@H]2O)[C@H](O)[C@@H](O)[C@H]1O` (stereo partly drawn) [melibiose] was 1360 µM.
